# US10487093B2, “Heterocyclic compounds, in particular 2-oxo-4,4,5,5,6,6,7,7-octahydrobenzoxazole derivatives, and their use as antibacterial compounds” (priority 2016, dated 2019)
# Experiments:
# [1] = test system: human hepatic cell line (HepG2 ATCC HB-8065); assay: Human cell viability assay (CellTiter-Glo); conditions: Homo sapiens, HepG2, 24 h, read-out: IC50 (μg/mL) HepG2
# [2] = test system: Enterococcus faecium ATCC 19434; assay: MIC, broth microdilution (CLSI) versus planktonic bacteria; format: cell-based; conditions: ATCC19434, 16-20 h, mode of three independent experiments, read-out: MIC, Efm ATCC 19434
# [3] = test system: E. coli MG1655; assay: as above; format: cell-based, Escherichia coli; conditions: Escherichia coli, MG1655, read-out: MIC, Ec MG1655 WT
# [4] = test system: Staphylococcus aureus ATCC 29213; assay: as above; format: cell-based; conditions: ATCC29213; Staphylococcus aureus ATCC 29213; 16-20 h; mode of three independent experiments; read-out: MIC, Sa ATCC 29213
# [5] = test system: fluoroquinolone-resistant Enterococcus faecium ATCC 700221; assay: as above; format: cell-based; conditions: ATCC700221, 16-20 h, mode of three independent experiments, read-out: MIC, Efm ATCC 700221
# [6] = test system: Enterobacter cloacae NCTC 13406; assay: as above; format: cell-based; conditions: NCTC13406; Enterobacter cloacae NCTC 13406; 16-20 h; mode of three independent experiments; read-out: MIC, Ecl NCTC 13406
# [7] = test system: Streptococcus pneumoniae ATCC 49619; assay: as above; format: cell-based; conditions: ATCC49619; Streptococcus pneumoniae ATCC 49619; 16-20 h; mode of three independent experiments; read-out: MIC, Sp ATCC 49619
# [8] = test system: Pseudomonas aeruginosa ATCC 27853; assay: as above; format: cell-based; conditions: ATCC27853; Pseudomonas aeruginosa ATCC 27853; 16-20 h; mode of three independent experiments; read-out: MIC, Pa ATCC 27853
# [9] = test system: E. coli MG1655 S83L; format: cell-based, Escherichia coli; conditions: compared to the isogenic parent strain E. coli MG1655; S83L mutation on DNA gyrase subunit GyrA
# [10] = test system: E. coli ATCC BAA-2452; assay: MIC, broth microdilution (CLSI) versus planktonic bacteria; format: cell-based; conditions: Escherichia coli ATCC BAA-2452; 16-20 h; mode of three independent experiments; read-out: MIC, Ec ATCC BAA 2452
# [11] = test system: Haemophilus influenzae ATCC 49247; assay: as above; format: cell-based; conditions: ATCC49247; Haemophilus influenzae ATCC 49247; 16-20 h; mode of three independent experiments; read-out: MIC, Hi ATCC 49247
# [12] = test system: Enterococcus faecalis ATCC 29212; assay: as above; format: cell-based; conditions: ATCC29212, 16-20 h, mode of three independent experiments, read-out: MIC, Ef ATCC 29212
# [13] = test system: Escherichia coli ATCC 25922; assay: as above; format: cell-based; conditions: ATCC25922; Escherichia coli ATCC 25922; 16-20 h; mode of three independent experiments; read-out: MIC, Ec ATCC 25922
# [14] = test system: Acinetobacter baumannii NCTC 13420; assay: as above; format: cell-based; conditions: NCTC13420; Acinetobacter baumannii NCTC 13420; 16-20 h; mode of three independent experiments; read-out: MIC, Ab NCTC 13420
# [15] = test system: Acinetobacter baumannii ATCC 19606; assay: as above; format: cell-based; conditions: ATCC19606; Acinetobacter baumannii ATCC 19606; 16-20 h; mode of three independent experiments; read-out: MIC, Ab ATCC 19606
# [16] = test system: E. coli NCTC 13476; assay: as above; format: cell-based; conditions: NCTC13476; Escherichia coli NCTC 13476; 16-20 h; mode of three independent experiments; read-out: MIC, Ec NCTC 13476
# [17] = test system: E. coli MG1655 D87G; format: cell-based, Escherichia coli; conditions: compared to the isogenic parent strain E. coli MG1655; D87G mutation on DNA gyrase subunit GyrA
SMILES,IC50 [1],MIC [2],MIC [3],MIC [4],MIC [5],MIC [6],MIC [7],MIC [8],"Fold increase in MIC, E. coli MG1655 S83L [9]",MIC [10],MIC [11],MIC [12],MIC [13],MIC [14],MIC [15],MIC [16],"Fold increase in MIC, E. coli MG1655 D87G [17]"
"COc1ccc2ncc(=O)n(CCNC3CCC4C(C3)OC(=O)N4c3ccc4c(n3)NC(=O)CO4)c2n1 (stereo in doubt) [Compound 43, (3aR,6R,7aR)-6-[(2-{6-methoxy-3-oxo-3H,4H-pyrido[2,3-b]pyrazin-4-yl}ethyl)amino]-3-{3-oxo-2H,3H,4H-pyrido[3,2-b][1,4]oxazin-6-yl}-octahydro-1,3-benzoxazol-2-one]",> 100 µg/mL,< 1 µg/mL,< 1 µg/mL,< 1 µg/mL,< 1 µg/mL,< 1 µg/mL,< 1 µg/mL,< 1 µg/mL,1 fold,< 1 µg/mL,< 1 µg/mL,< 1 µg/mL,< 1 µg/mL,< 1 µg/mL,< 1 µg/mL,< 1 µg/mL,0.5 fold
"COc1ccc2ccc(=O)n(CCN[C@H]3CC[C@H]4[C@H](C3)OC(=O)N4c3ccc4c(n3)NC(=O)CO4)c2n1 [Compound 29, 1-(2-{[(3aS,6S,7aS)-2-oxo-3-{3-oxo-2H,3H,4H-pyrido[3,2-b][1,4]oxazin-6-yl}-octahydro-1,3-benzoxazol-6-yl]amino}ethyl)-7-methoxy-1,2-dihydro-1,8-naphthyridin-2-one]",10 to 100 µg/mL,< 1 µg/mL,< 1 µg/mL,< 1 µg/mL,< 1 µg/mL,< 1 µg/mL,< 1 µg/mL,< 1 µg/mL,1 fold,< 1 µg/mL,< 1 µg/mL,< 1 µg/mL,< 1 µg/mL,< 1 µg/mL,< 1 µg/mL,,2 fold
"O=C1COc2ccc(N3C(=O)O[C@H]4C[C@@H](NCCn5c(=O)cnc6cc(F)c(F)cc65)CC[C@@H]43)nc2N1 [Compound 34, 1-(2-{[(3aS,6S,7aS)-2-oxo-3-{3-oxo-2H,3H,4H-pyrido[3,2-b][1,4]oxazin-6-yl}-octahydro-1,3-benzoxazol-6-yl]amino}ethyl)-6,7-difluoro-1,2-dihydroquinoxalin-2-one]",,< 1 µg/mL,< 1 µg/mL,< 1 µg/mL,< 1 µg/mL,< 1 µg/mL,< 1 µg/mL,1 to 10 µg/mL,1 fold,< 1 µg/mL,< 1 µg/mL,< 1 µg/mL,< 1 µg/mL,< 1 µg/mL,< 1 µg/mL,< 1 µg/mL,2 fold
"N#Cc1cccc(-c2cccc(CN[C@@H]3CC[C@@H]4[C@@H](C3)OC(=O)N4c3ccc4c(n3)NC(=O)CO4)c2O)n1 [Compound 40, 6-[3-({[(3aR,6R,7aR)-2-oxo-3-{3-oxo-2H,3H,4H-pyrido[3,2-b][1,4]oxazin-6-yl}-octahydro-1,3-benzoxazol-6-yl]amino}methyl)-2-hydroxyphenyl]pyridine-2-carbonitrile]",10 to 100 µg/mL,< 1 µg/mL,< 1 µg/mL,< 1 µg/mL,< 1 µg/mL,< 1 µg/mL,1 to 10 µg/mL,< 1 µg/mL,1 fold,< 1 µg/mL,< 1 µg/mL,< 1 µg/mL,< 1 µg/mL,< 1 µg/mL,< 1 µg/mL,< 1 µg/mL,1 fold
"N#Cc1ccc2ccc(=O)n(CCN[C@@H]3CC[C@@H]4[C@@H](C3)OC(=O)N4c3ccc4c(n3)NC(=O)CO4)c2c1 [Compound 59, 1-(2-{[(3aR,6R,7aR)-2-oxo-3-{3-oxo-2H,3H,4H-pyrido[3,2-b][1,4]oxazin-6-yl}-octahydro-1,3-benzoxazol-6-yl]amino}ethyl)-2-oxo-1,2-dihydroquinoline-7-carbonitrile]",10 to 100 µg/mL,< 1 µg/mL,< 1 µg/mL,< 1 µg/mL,< 1 µg/mL,< 1 µg/mL,< 1 µg/mL,< 1 µg/mL,1 fold,< 1 µg/mL,< 1 µg/mL,< 1 µg/mL,< 1 µg/mL,< 1 µg/mL,< 1 µg/mL,< 1 µg/mL,1 fold
"COc1ccc2ccc(=O)n(CCN[C@H]3CC[C@H]4[C@H](C3)OC(=O)N4c3ccc4c(n3)NC(=O)CS4)c2n1 [Compound 61, 1-(2-{[(3aS,6S,7aS)-2-oxo-3-{3-oxo-2H,3H,4H-pyrido[3,2-b][1,4]thiazin-6-yl}-octahydro-1,3-benzoxazol-6-yl]amino}ethyl)-7-methoxy-1,2-dihydro-1,8-naphthyridin-2-one]",10 to 100 µg/mL,< 1 µg/mL,< 1 µg/mL,< 1 µg/mL,< 1 µg/mL,< 1 µg/mL,< 1 µg/mL,< 1 µg/mL,1 fold,< 1 µg/mL,< 1 µg/mL,< 1 µg/mL,< 1 µg/mL,< 1 µg/mL,< 1 µg/mL,< 1 µg/mL,1 fold
"COc1cccc(-c2cccc(CN[C@@H]3CC[C@@H]4[C@@H](C3)OC(=O)N4c3ccc4c(n3)NC(=O)CO4)c2)n1 [Compound 80, (3aR,6R,7aR)-6-({[3-(6-methoxypyridin-2-yl)phenyl]methyl}amino)-3-{3-oxo-2H,3H,4H-pyrido[3,2-b][1,4]oxazin-6-yl}-octahydro-1,3-benzoxazol-2-one]",10 to 100 µg/mL,1 to 10 µg/mL,< 1 µg/mL,< 1 µg/mL,1 to 10 µg/mL,1 to 10 µg/mL,1 to 10 µg/mL,1 to 10 µg/mL,1 fold,< 1 µg/mL,< 1 µg/mL,< 1 µg/mL,< 1 µg/mL,< 1 µg/mL,< 1 µg/mL,< 1 µg/mL,1 fold
"COc1ccc2ccc(=O)n(CCN[C@H]3CC[C@H]4[C@H](C3)OC(=O)N4c3ccc4c(n3)NC(=O)CO4)c2c1 [Compound 102, 1-(2-{[(3aS,6S,7aS)-2-oxo-3-{3-oxo-2H,3H,4H-pyrido[3,2-b][1,4]oxazin-6-yl}-octahydro-1,3-benzoxazol-6-yl]amino}ethyl)-7-methoxy-1,2-dihydroquinolin-2-one]",10 to 100 µg/mL,< 1 µg/mL,< 1 µg/mL,< 1 µg/mL,< 1 µg/mL,< 1 µg/mL,< 1 µg/mL,1 to 10 µg/mL,2 fold,< 1 µg/mL,,< 1 µg/mL,< 1 µg/mL,< 1 µg/mL,< 1 µg/mL,< 1 µg/mL,2 fold
